{"source": "ChEMBL document CHEMBL1201862", "about": "“PubChem BioAssay data set” (2004)", "key": {"[1]": {"molecular_target": "SWI/SNF-related matrix-associated actin-dependent regulator of chromatin subfamily A member 2 (Homo sapiens, UniProt P51531)", "sequence (P51531 whole entry)": "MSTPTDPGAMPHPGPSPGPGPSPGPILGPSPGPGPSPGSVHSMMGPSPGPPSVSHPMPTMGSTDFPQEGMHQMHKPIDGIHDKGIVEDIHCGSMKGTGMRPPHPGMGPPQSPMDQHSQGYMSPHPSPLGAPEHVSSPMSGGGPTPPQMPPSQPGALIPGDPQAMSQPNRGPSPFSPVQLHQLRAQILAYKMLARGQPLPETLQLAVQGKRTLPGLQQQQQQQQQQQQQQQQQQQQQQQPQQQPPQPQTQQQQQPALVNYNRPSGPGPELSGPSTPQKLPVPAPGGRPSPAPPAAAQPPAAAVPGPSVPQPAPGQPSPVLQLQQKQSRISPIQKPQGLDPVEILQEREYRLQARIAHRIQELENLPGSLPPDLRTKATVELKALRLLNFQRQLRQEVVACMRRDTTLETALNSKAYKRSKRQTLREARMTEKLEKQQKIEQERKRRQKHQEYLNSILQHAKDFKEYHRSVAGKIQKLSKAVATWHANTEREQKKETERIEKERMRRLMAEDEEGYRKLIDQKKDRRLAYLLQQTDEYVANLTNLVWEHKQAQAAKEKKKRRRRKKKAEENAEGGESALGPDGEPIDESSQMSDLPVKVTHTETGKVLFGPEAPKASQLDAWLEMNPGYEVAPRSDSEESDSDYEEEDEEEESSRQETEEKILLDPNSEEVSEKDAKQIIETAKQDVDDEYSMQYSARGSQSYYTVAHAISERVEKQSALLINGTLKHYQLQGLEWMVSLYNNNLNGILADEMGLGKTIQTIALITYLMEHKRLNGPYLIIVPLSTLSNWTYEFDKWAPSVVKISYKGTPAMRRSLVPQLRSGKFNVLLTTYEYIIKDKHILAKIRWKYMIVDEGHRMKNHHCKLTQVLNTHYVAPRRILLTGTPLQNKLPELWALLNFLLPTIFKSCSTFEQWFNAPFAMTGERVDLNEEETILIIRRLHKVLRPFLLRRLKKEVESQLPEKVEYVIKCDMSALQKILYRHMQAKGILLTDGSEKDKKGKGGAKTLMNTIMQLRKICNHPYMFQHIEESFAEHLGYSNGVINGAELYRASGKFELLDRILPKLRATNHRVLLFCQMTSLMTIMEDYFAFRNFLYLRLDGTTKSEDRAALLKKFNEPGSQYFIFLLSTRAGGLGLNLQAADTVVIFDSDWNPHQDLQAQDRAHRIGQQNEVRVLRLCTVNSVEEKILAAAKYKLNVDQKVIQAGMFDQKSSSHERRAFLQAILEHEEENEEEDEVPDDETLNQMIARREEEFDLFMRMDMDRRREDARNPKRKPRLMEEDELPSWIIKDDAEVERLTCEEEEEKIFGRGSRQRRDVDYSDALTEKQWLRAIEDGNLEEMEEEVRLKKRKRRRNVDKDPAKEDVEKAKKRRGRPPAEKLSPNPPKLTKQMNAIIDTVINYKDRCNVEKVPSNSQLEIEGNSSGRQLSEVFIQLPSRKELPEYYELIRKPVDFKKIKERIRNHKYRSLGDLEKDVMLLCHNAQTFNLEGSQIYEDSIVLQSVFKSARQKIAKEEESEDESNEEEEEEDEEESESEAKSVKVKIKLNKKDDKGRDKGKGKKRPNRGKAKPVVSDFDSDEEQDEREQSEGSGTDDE", "assay": "Luminescence-based cell-based high throughput dose response assay to identify activators of the function of SWI/SNF related, matrix associated, actin dependent regulator of chromatin, subfamily a, member 2 (SMARCA2, BRM).", "type": "functional"}, "[2]": {"assay": "Counterscreen for activators of the function of SWI/SNF related, matrix associated, actin dependent regulator of chromatin, subfamily a, member 2 (SMARCA2, BRM): Luminescence-based cell-based high throughput dose response assay to identify non-selective compounds using the VP16 reporter assay.", "type": "functional"}, "[3]": {"tested_on": "HeLa", "assay": "ATP-based viability loss in HeLa cells – cell-based, CellTiter-Glo luminescence, cherry-pick samples, cytotoxicity control for MITF activator project, dose response (AID 540259)", "type": "functional", "settings": "Homo sapiens"}, "[4]": {"molecular_target": "Genome polyprotein (dengue virus type 2, UniProt P29990)", "sequence (P29990 2492-3391 limits assumed)": "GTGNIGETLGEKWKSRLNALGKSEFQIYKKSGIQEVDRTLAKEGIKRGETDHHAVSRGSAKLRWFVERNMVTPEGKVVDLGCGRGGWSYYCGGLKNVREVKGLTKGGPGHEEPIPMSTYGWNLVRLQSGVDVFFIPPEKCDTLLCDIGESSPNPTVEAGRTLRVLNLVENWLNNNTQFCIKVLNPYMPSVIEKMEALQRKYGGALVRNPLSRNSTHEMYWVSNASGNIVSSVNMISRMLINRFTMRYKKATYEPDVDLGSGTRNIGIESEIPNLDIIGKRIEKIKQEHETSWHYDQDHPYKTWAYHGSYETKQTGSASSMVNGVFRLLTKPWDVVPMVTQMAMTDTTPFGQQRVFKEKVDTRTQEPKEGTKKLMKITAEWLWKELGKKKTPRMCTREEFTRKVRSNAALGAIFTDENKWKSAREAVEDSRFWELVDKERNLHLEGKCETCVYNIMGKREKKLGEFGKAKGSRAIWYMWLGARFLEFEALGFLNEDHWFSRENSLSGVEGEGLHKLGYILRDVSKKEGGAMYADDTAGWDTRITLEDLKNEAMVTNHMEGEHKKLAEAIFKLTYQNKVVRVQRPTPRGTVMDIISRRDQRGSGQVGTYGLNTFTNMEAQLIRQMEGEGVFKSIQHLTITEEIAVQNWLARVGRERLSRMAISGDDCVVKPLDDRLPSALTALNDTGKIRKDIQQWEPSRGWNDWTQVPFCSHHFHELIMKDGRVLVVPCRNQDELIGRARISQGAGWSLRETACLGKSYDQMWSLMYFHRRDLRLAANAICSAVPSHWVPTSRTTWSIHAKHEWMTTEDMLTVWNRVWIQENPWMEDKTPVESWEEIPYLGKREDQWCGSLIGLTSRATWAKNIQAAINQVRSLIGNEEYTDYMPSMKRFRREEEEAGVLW", "assay": "flavivirus cap methylation enzyme inhibition – biochemical, confirmation dose response, primary screen (AID 588689)", "type": "functional"}, "[5]": {"tested_on": "Vero", "assay": "viability of Vero cells under compound – cytotoxicity control for flavivirus capping enzyme inhibitors (AID 588742)", "type": "functional", "settings": "Chlorocebus sabaeus"}, "[6]": {"assay": "alpha-synuclein stem-loop luciferase translation blockers – H4 neuroglioma cells, luminescence, confirmation (AID 1988)", "type": "functional, cell-based"}, "[7]": {"assay": "Luminescence Cell-Based Dose Response HTS to Identify Inhibitors of 5'UTR Stem-Loop Driven Prion Protein mRNA Translation in H4 Neuroglioblastoma Cells. [Related pubchem assays: 1827 (Project Summary), 1813 (Primary HTS)]", "type": "functional"}, "[8]": {"molecular_target": "T1, Apoptotic protease-activating factor 1 (Homo sapiens, UniProt O14727)", "T1 sequence (O14727 whole entry)": "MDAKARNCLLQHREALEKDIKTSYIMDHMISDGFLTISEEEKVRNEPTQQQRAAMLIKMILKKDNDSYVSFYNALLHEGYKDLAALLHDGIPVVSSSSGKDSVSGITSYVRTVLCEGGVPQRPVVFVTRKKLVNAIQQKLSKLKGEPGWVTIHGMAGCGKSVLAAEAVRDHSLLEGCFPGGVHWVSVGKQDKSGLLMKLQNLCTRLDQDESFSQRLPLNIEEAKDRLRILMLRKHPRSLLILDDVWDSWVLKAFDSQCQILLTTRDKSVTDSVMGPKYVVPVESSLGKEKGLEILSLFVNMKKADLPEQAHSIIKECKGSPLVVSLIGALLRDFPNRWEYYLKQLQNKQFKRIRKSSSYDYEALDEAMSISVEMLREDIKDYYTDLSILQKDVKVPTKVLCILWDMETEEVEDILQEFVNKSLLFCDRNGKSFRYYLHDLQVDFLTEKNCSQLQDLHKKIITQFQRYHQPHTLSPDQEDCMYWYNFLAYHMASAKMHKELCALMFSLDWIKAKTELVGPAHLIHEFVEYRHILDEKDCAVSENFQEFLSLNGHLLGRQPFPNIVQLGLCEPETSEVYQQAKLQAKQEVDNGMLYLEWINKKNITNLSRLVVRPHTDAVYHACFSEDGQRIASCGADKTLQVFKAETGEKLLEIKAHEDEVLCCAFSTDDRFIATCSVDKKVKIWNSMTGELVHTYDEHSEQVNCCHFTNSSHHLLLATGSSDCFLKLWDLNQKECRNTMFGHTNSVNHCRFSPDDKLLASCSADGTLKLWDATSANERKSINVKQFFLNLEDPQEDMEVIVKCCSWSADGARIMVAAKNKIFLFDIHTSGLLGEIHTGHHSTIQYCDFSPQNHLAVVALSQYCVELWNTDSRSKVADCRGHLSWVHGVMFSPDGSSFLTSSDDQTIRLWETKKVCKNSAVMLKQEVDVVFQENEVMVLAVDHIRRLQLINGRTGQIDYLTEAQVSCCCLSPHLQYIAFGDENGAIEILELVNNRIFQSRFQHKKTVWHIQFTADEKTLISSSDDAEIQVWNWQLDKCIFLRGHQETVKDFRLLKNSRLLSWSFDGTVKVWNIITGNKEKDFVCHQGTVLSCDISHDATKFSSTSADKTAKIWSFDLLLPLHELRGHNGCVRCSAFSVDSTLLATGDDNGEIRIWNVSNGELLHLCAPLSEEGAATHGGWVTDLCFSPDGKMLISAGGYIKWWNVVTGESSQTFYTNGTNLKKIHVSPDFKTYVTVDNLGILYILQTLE", "type": "functional"}, "[9]": {"assay": "luciferase reporter signal suppression in cells – H4 neuroglioma cells, luminescence, dose response (AID 1990)", "type": "functional, cell-based"}, "[10]": {"molecular_target": "Cysteine protease ATG4B (Homo sapiens, UniProt Q9Y4P1)", "sequence (Q9Y4P1 whole entry)": "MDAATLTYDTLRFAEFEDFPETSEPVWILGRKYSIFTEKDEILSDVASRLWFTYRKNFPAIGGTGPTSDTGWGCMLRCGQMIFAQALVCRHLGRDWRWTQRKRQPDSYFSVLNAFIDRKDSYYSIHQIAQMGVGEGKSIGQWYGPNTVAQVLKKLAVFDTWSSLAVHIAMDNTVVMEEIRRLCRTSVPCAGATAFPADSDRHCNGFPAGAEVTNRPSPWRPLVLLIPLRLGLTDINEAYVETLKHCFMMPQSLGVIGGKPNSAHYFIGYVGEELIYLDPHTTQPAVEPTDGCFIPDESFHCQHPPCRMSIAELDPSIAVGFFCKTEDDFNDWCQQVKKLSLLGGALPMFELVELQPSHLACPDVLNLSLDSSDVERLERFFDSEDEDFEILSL", "type": "functional"}, "[11]": {"molecular_target": "Phospholipase A2 (Homo sapiens, UniProt P04054)", "sequence (P04054 whole entry)": "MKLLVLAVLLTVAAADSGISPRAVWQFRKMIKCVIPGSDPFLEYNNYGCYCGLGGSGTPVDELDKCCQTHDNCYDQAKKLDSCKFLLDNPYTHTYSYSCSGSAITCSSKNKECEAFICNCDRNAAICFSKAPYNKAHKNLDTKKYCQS", "type": "functional"}, "[12]": {"assay": "Trypanosoma cruzi growth suppression in host cells – NIH3T3 host cells, beta-gal luminescence, confirmation (AID 2044);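 note: luminescent beta-galactosidase reporter signal from transgenic T. cruzi replicating inside host cells; inhibitors lower the luminescence signal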", "type": "functional, cell-based"}, "[13]": {"assay": "NIH3T3 cell viability loss – ATP luminescence, mouse fibroblasts, counter-screen, dose response (AID 2010);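 note: cells exposed to compound for about 90 hours before reading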", "type": "functional, cell-based"}, "[14]": {"molecular_target": "Trypsin (Sus scrofa, UniProt P00761)", "sequence (P00761 whole entry)": "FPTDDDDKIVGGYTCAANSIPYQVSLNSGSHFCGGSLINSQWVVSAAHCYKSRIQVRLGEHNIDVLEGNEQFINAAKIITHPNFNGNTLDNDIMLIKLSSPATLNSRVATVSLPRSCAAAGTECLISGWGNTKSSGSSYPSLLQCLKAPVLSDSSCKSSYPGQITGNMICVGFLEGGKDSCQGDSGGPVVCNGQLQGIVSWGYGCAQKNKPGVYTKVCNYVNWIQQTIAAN", "assay": "trypsin protease activity blockade – biochemical, quenched peptide fluorescence, cherry-pick, selectivity assay for Rce1 protease inhibitor project, dose response (AID 488789)"}, "[15]": {"molecular_target": "CAAX prenyl protease 2 (Homo sapiens, UniProt Q9Y256)", "sequence (Q9Y256 whole entry)": "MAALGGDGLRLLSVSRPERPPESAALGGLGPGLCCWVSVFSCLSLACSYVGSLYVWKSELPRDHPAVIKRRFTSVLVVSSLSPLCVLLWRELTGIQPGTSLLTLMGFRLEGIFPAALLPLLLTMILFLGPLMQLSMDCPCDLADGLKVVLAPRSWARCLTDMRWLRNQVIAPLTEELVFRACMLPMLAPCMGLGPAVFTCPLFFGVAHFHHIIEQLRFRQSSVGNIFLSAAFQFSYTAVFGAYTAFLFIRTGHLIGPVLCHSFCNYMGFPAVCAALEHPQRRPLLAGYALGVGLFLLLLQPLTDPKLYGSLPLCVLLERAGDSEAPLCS", "assay": "inhibition of Ras-converting CAAX protease Rce1 – biochemical, yeast membranes, quenched-peptide fluorescence, cherry-pick, dose response (AID 588849)"}, "[16]": {"molecular_target": "Latent membrane protein 1 (Human herpesvirus 4 (strain B95-8), UniProt P03230)", "sequence (P03230 whole entry)": "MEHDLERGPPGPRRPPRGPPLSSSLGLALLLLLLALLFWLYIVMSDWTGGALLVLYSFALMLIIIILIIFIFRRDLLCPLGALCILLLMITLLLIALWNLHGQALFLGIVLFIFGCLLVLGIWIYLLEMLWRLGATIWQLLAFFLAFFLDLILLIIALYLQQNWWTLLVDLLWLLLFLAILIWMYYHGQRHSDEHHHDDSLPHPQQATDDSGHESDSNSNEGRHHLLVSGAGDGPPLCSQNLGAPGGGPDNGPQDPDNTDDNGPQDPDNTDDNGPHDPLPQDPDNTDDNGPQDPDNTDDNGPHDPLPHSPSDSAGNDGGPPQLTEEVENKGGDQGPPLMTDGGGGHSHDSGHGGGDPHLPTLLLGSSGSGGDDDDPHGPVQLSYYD", "assay": "LMP1 TES1 pathway selectivity over dsRED control – imaging, HEK293T, dual-color eGFP/dsRED, cherry-picks, selectivity assay for LMP1 NF-kB inhibitor project, dose response (AID 588398)", "type": "functional, cell-based"}, "[17]": {"assay": "loss of viability in HepG2 cells – cell-based, CellTiter-Glo, cherry-picked, cytotoxicity control for Shn3 inhibitor project, dose response (AID 624134)", "type": "functional"}, "[18]": {"tested_on": "HEK293", "assay": "EBV LMP1 TES2 canonical NF-kB signalling blockers – cell-based, HEK293, luciferase, cherry-pick, dose response (AID 588343)", "type": "functional", "settings": "Homo sapiens"}, "[19]": {"assay": "reduction of Shn3 3'UTR-driven luciferase in osteoblasts – cell-based, Clone20 osteoblasts, firefly luciferase, cherry-picked, dose response (AID 624132)", "type": "functional"}, "[20]": {"assay": "non-specific 3'UTR reporter inhibition in Clone20-Shn3RL – cell-based, Renilla luciferase, cherry-picked, counter-screen for Shn3 inhibitor project, dose response (AID 624133)", "type": "functional"}, "[21]": {"tested_on": "Escherichia coli", "assay": "microbe, parasite or virus in culture"}, "[22]": {"tested_on": "Escherichia coli", "assay": "microbe, parasite or virus in culture", "remark": "listed apart in the source"}, "[23]": {"assay": "cells", "type": "functional"}, "[24]": {"tested_on": "Streptococcus sp. 'group A'", "assay": "Streptococcus pyogenes SK(-)GAS viability under kanamycin – luminescence, BacTiterGlo, confirmation, counter-screen for streptokinase expression inhibitor project, dose response (AID 1900)", "type": "functional, organism-based"}, "[25]": {"tested_on": "Streptococcus", "assay": "GAS UMAA2166 growth inhibition – luminescence, BacTiterGlo, counter-screen for streptokinase expression inhibitor project, dose response (AID 1915);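 note: potency for reduction of bacterial viability or growth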", "type": "functional, organism-based"}}, "note": "Active and inactive are the calls of the source."}
{"compound": "Cc1nc(COC(=O)c2c(C)nn(-c3ccccc3)c2C)cs1", "values": [{"measurement": "EC50", "setting": "[1]", "result": "> 91.1 µM (inactive)"}, {"measurement": "EC50", "setting": "[2]", "result": "> 91.1 µM (inactive)"}, {"measurement": "AC50", "setting": "[3]", "result": "76 µM (active)"}]}
{"compound": "O=C(NCC(c1cccs1)N1CCOCC1)c1ccccc1NS(=O)(=O)c1ccc(Cl)c([N+](=O)[O-])c1", "note": "(configuration not stated)", "values": [{"measurement": "IC50", "setting": "[4]", "result": "> 100 µM (active)"}, {"measurement": "CC50", "setting": "[5]", "result": "38.8 µM (active)"}]}
{"compound": "Cc1c(CCC(C)C)c(O)n2c(nc3ccccc32)c1C#N", "values": [{"measurement": "EC50", "setting": "[6]", "result": "> 120 µM (not active)"}, {"measurement": "EC50", "setting": "[7]", "result": "> 120 µM (not active)"}, {"measurement": "IC50", "setting": "[8]", "result": "38.6 µM (active)"}, {"measurement": "EC50", "setting": "[9]", "result": "69.3 µM (active)"}]}
{"compound": "COc1ccc(N2C(=O)c3ccccc3NC23CCC(C)CC3)cc1", "note": "(configuration not stated)", "values": [{"measurement": "IC50", "setting": "[10]", "result": "21.1 µM (inactive)"}, {"measurement": "IC50", "setting": "[11]", "result": "7.99 µM (active)"}]}
{"compound": "COc1ccc(/C=C/c2nc3ccccc3n2Cc2ccccc2OC)cc1", "values": [{"measurement": "EC50", "setting": "[12]", "result": "0.663 µM (active)"}, {"measurement": "EC50", "setting": "[13]", "result": "> 60 µM (inconclusive)"}, {"measurement": "AC50", "setting": "[14]", "result": "3.43 µM (active)"}, {"measurement": "AC50", "setting": "[15]", "result": "3.33 µM (active)"}]}
{"compound": "CC(C)(O)C#Cc1ccc([C@@H]2C[C@H]3CN(c4ccccc4)C(=O)[C@]34CCCN24)s1", "values": [{"measurement": "AC50", "setting": "[16]", "result": "5.64 µM (active)"}, {"measurement": "AC50", "setting": "[17]", "result": "> 70 µM (inactive)"}, {"measurement": "AC50", "setting": "[18]", "result": "11.9 µM (active)"}, {"measurement": "AC50", "setting": "[19]", "result": "4.93 µM (active)"}, {"measurement": "AC50", "setting": "[20]", "result": "> 70 µM (inactive)"}]}
{"compound": "C/C=C(/C)C(=O)O[C@H]1[C@@H](O)c2c(ccc3ccc(=O)oc23)OC1(C)C", "values": [{"measurement": "AC50", "setting": "[15]", "result": "24.9 µM (active)"}]}
{"compound": "CCOC(=O)C1=C(C)c2ccccc2OC1(C(=O)OCC)C(C)C", "note": "(configuration not stated)", "values": [{"measurement": "AC50", "setting": "[21]", "result": "379 µM (active)"}]}
{"compound": "COC(=O)C1C(O)C(C)C(O)C(C)(O)/C=C\\C=C(/C)C(=O)Nc2c(C)c(OC(C)=O)c3c(c2O)C(=O)C(C)=C2OCOC(=C23)/C(C)=C/C(C)(O)C(O)C(C)C1O", "note": "(configuration not stated)", "values": [{"measurement": "AC50", "setting": "[22]", "result": "> 150 µM (inactive)"}]}
{"compound": "CNC(=S)N1CCN(c2c(F)cc3c(=O)c(C(=O)O)cn(C4CC4)c3c2OC)CC1C", "note": "(configuration not stated)", "values": [{"measurement": "IC50", "setting": "[23]", "result": "2.57 µM (active)"}, {"measurement": "AC50", "setting": "[22]", "result": "1.44 µM (active)"}, {"measurement": "EC50", "setting": "[24]", "result": "0.179 µM (active)"}, {"measurement": "EC50", "setting": "[25]", "result": "0.229 µM (active)"}]}
